Results as given in PubChem BioAssay (NCI).
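A five-concentration, 48-hour dose response in 96-well plates underlies each endpoint, interpolated linearly between surrounding concentrations. GI50 is the concentration that inhibits growth by half. TGI marks complete inhibition of growth.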

Experiments:
Experiment in all cases: DTP human tumour cell line panel, 48 h
PC-3 prostate = tested on: PC-3 prostate
M14 melanoma = tested on: M14 melanoma
NCI-H226 lung = tested on: NCI-H226 lung
SK-MEL-5 melanoma = tested on: SK-MEL-5 melanoma
OVCAR-3 ovarian = tested on: OVCAR-3 ovarian
MDA-MB-231 breast = tested on: MDA-MB-231 breast
HL-60(TB) leukemia = tested on: HL-60(TB) leukemia
A498 renal = tested on: A498 renal
ACHN renal = tested on: ACHN renal
LOX IMVI melanoma = tested on: LOX IMVI melanoma
NCI-H23 lung = tested on: NCI-H23 lung
HOP-62 NSCLC = tested on: HOP-62 NSCLC
HCT-116 colon = tested on: HCT-116 colon
HT29 colon = tested on: HT29 colon
SR leukemia = tested on: SR leukemia
HOP-92 NSCLC = tested on: HOP-92 NSCLC
UO-31 renal = tested on: UO-31 renal
BT-549 breast = tested on: BT-549 breast
RPMI-8226 leukemia = tested on: RPMI-8226 leukemia
786-0 renal = tested on: 786-0 renal
CAKI-1 renal = tested on: CAKI-1 renal
T-47D breast = tested on: T-47D breast
SF-268 CNS = tested on: SF-268 CNS
NCI-H522 lung = tested on: NCI-H522 lung
SF-539 CNS = tested on: SF-539 CNS
SK-OV-3 ovarian = tested on: SK-OV-3 ovarian
K-562 leukemia = tested on: K-562 leukemia
COLO 205 colon = tested on: COLO 205 colon
SK-MEL-2 melanoma = tested on: SK-MEL-2 melanoma
DU-145 prostate = tested on: DU-145 prostate
MCF7 breast = tested on: MCF7 breast
HCT-15 colon = tested on: HCT-15 colon
U251 CNS = tested on: U251 CNS
OVCAR-5 ovarian = tested on: OVCAR-5 ovarian
MALME-3M melanoma = tested on: MALME-3M melanoma
MDA-MB-468 breast = tested on: MDA-MB-468 breast
SNB-19 CNS = tested on: SNB-19 CNS
OVCAR-4 ovarian = tested on: OVCAR-4 ovarian
SW-620 colon = tested on: SW-620 colon
NCI-H460 lung = tested on: NCI-H460 lung
SNB-75 CNS = tested on: SNB-75 CNS
RXF 393 renal = tested on: RXF 393 renal
A549 NSCLC = tested on: A549 NSCLC
EKVX NSCLC = tested on: EKVX NSCLC
SN12C renal = tested on: SN12C renal
HCC-2998 colon = tested on: HCC-2998 colon
OVCAR-8 ovarian = tested on: OVCAR-8 ovarian
UACC-62 melanoma = tested on: UACC-62 melanoma
IGROV1 ovarian = tested on: IGROV1 ovarian
CCRF-CEM leukemia = tested on: CCRF-CEM leukemia
SK-MEL-28 melanoma = tested on: SK-MEL-28 melanoma
UACC-257 melanoma = tested on: UACC-257 melanoma
MOLT-4 leukemia = tested on: MOLT-4 leukemia
KM12 colon = tested on: KM12 colon
MDA-MB-435 = tested on: MDA-MB-435
TK-10 renal = tested on: TK-10 renal
SF-295 CNS = tested on: SF-295 CNS

COc1cc(/C=C/C(=O)c2ccc(S(=O)(=O)NCCNc3nc(N(C)C)nc(N4CCOCC4)n3)cc2)cc(OC)c1OC
GI50 (PC-3 prostate): 3.76 µM
TGI (PC-3 prostate): 13.6 µM
GI50 (M14 melanoma): 2180 nM
TGI (M14 melanoma): 6.34 µM
GI50 (NCI-H226 lung): 11.4 µM
TGI (NCI-H226 lung): 28.8 µM
GI50 (SK-MEL-5 melanoma): 7.9 µM
TGI (SK-MEL-5 melanoma): 20.7 µM
GI50 (OVCAR-3 ovarian): 2020 nM
TGI (OVCAR-3 ovarian): 4.23 µM
GI50 (MDA-MB-231 breast): 2900 nM
TGI (MDA-MB-231 breast): 7.55 µM
GI50 (HL-60(TB) leukemia): 1970 nM
TGI (HL-60(TB) leukemia): 7.34 µM
GI50 (A498 renal): 14.2 µM
TGI (A498 renal): 27.4 µM
GI50 (ACHN renal): 1780 nM
TGI (ACHN renal): 3.46 µM
GI50 (LOX IMVI melanoma): 1640 nM
TGI (LOX IMVI melanoma): 3.07 µM
GI50 (NCI-H23 lung): 3.09 µM
TGI (NCI-H23 lung): 12.3 µM
GI50 (HOP-62 NSCLC): 2660 nM
TGI (HOP-62 NSCLC): 8.72 µM
GI50 (HCT-116 colon): 1560 nM
TGI (HCT-116 colon): 3.04 µM
GI50 (HT29 colon): 1720 nM
TGI (HT29 colon): 3.19 µM
GI50 (SR leukemia): 1880 nM
TGI (SR leukemia): 7.84 µM
GI50 (HOP-92 NSCLC): 7.27 µM
TGI (HOP-92 NSCLC): 25.7 µM
GI50 (UO-31 renal): 1570 nM
TGI (UO-31 renal): 3.15 µM
GI50 (BT-549 breast): 2010 nM
TGI (BT-549 breast): 3.73 µM
GI50 (RPMI-8226 leukemia): 1390 nM
TGI (RPMI-8226 leukemia): 4.66 µM
GI50 (786-0 renal): 1890 nM
TGI (786-0 renal): 3.68 µM
GI50 (CAKI-1 renal): 10.6 µM
TGI (CAKI-1 renal): 23.3 µM
GI50 (T-47D breast): 5.74 µM
TGI (T-47D breast): 23.3 µM
GI50 (SF-268 CNS): 3.16 µM
TGI (SF-268 CNS): 12.5 µM
GI50 (NCI-H522 lung): 1660 nM
TGI (NCI-H522 lung): 3.25 µM
GI50 (SF-539 CNS): 1810 nM
TGI (SF-539 CNS): 3.37 µM
GI50 (SK-OV-3 ovarian): 14.3 µM
TGI (SK-OV-3 ovarian): 27.4 µM
GI50 (K-562 leukemia): 1460 nM
TGI (K-562 leukemia): > 100 µM
GI50 (COLO 205 colon): 2140 nM
TGI (COLO 205 colon): 5.03 µM
GI50 (SK-MEL-2 melanoma): 10.7 µM
TGI (SK-MEL-2 melanoma): 22.9 µM
GI50 (DU-145 prostate): 3.31 µM
TGI (DU-145 prostate): 11.6 µM
GI50 (MCF7 breast): 1640 nM
TGI (MCF7 breast): 3.98 µM
GI50 (HCT-15 colon): 1820 nM
TGI (HCT-15 colon): 3.91 µM
GI50 (U251 CNS): 1540 nM
TGI (U251 CNS): 2920 nM
GI50 (OVCAR-5 ovarian): 2830 nM
TGI (OVCAR-5 ovarian): 7.57 µM
GI50 (MALME-3M melanoma): 1970 nM
TGI (MALME-3M melanoma): 4.31 µM
GI50 (MDA-MB-468 breast): 1690 nM
TGI (MDA-MB-468 breast): 3.36 µM
GI50 (SNB-19 CNS): 4.28 µM
TGI (SNB-19 CNS): 16.2 µM
GI50 (OVCAR-4 ovarian): 2210 nM
TGI (OVCAR-4 ovarian): 6.35 µM
GI50 (SW-620 colon): 1900 nM
TGI (SW-620 colon): 3.75 µM
GI50 (NCI-H460 lung): 3.17 µM
TGI (NCI-H460 lung): 10.4 µM
GI50 (SNB-75 CNS): 1560 nM
TGI (SNB-75 CNS): 15.5 µM
GI50 (RXF 393 renal): 1220 nM
TGI (RXF 393 renal): 3.24 µM
GI50 (A549 NSCLC): 3.55 µM
TGI (A549 NSCLC): 14 µM
GI50 (EKVX NSCLC): 3.74 µM
TGI (EKVX NSCLC): 19.8 µM
GI50 (SN12C renal): 2720 nM
TGI (SN12C renal): 8.71 µM
GI50 (HCC-2998 colon): 1800 nM
TGI (HCC-2998 colon): 3.26 µM
GI50 (OVCAR-8 ovarian): 2300 nM
TGI (OVCAR-8 ovarian): 6.07 µM
GI50 (UACC-62 melanoma): 2140 nM
TGI (UACC-62 melanoma): 5.54 µM
GI50 (IGROV1 ovarian): 2600 nM
TGI (IGROV1 ovarian): 7.54 µM
GI50 (CCRF-CEM leukemia): 2070 nM
TGI (CCRF-CEM leukemia): 7.25 µM
GI50 (SK-MEL-28 melanoma): 2120 nM
TGI (SK-MEL-28 melanoma): 4.8 µM
GI50 (UACC-257 melanoma): 5.86 µM
TGI (UACC-257 melanoma): 18.5 µM
GI50 (MOLT-4 leukemia): 2230 nM
TGI (MOLT-4 leukemia): 9.28 µM
GI50 (KM12 colon): 1700 nM
TGI (KM12 colon): 3.33 µM
GI50 (MDA-MB-435): 1900 nM
TGI (MDA-MB-435): 4.02 µM
GI50 (TK-10 renal): 13.1 µM
TGI (TK-10 renal): 25.9 µM
GI50 (SF-295 CNS): 3.04 µM
TGI (SF-295 CNS): 11.9 µM
